Results as given in patent publication US9023789B2, “Amylin analogs and pharmaceutical compositions thereof” (Novo Nordisk A/S, priority 2012, dated 2015).
In brackets after ≈: the same amount, converted by molar mass. Where two headings read alike, the source gives them in different places. Numbered stars: 1 amine (or outer) side, 2 acyl side, 3 side chain; on linkers, the order of the positions; unused ones are H or OH. Bridge positions count the residues as written; N and C are the ends. Peptide text beside a SMILES is read from it. * marks the point of attachment. C20 diacid = O=C(O)CCCCCCCCCCCCCCCCCCC(=O)*; γGlu = O=C(O)[C@H](CCC(=O)[*:2])N[*:1]

Experiments:
[1] = target: T1, human amylin receptor (membranes from Amylin 3(a)/CRE-luc cells) (Homo sapiens, UniProt O60896+P30988); experiment: ASSAY (V) binding to the human amylin receptor (SPA, 125I-rat amylin);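 further: competition binding of cell membranes (35 ng/µL) mixed with SPA beads in 384-well plates at 40 µL total volume, read by scintillation counting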
T1 construct: expressed in transfected cells
T1 sequence (P30988 25-474): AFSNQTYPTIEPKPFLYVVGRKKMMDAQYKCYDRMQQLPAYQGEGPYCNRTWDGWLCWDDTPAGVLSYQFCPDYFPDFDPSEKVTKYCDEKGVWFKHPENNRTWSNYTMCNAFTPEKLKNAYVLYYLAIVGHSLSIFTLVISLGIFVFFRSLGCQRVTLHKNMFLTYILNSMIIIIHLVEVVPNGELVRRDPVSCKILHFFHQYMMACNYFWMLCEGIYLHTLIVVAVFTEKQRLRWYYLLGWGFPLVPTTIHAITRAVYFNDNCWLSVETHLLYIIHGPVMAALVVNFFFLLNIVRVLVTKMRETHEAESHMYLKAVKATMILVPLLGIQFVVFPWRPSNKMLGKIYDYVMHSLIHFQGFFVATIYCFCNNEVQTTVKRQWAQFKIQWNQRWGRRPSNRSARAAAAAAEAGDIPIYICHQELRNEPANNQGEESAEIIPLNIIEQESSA
T1 sequence (O60896 24-148 partner): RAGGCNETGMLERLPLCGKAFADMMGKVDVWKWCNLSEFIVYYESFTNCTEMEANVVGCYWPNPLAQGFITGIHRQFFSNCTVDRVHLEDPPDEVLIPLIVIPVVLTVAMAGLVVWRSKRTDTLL

rat calcitonin receptor = target: T2, rat calcitonin receptor (Rattus norvegicus, UniProt P32214); experiment: ASSAY (VIII) binding to the rat calcitonin receptor; conditions: Table 7, read-out: rCTR bind IC50
T2 construct: expressed in transfected cells; host or cells: BHK tk'ts 13 (transient, FuGENE 6), membranes
T2 sequence (P32214 25-479 isoform P32214-2 limits assumed): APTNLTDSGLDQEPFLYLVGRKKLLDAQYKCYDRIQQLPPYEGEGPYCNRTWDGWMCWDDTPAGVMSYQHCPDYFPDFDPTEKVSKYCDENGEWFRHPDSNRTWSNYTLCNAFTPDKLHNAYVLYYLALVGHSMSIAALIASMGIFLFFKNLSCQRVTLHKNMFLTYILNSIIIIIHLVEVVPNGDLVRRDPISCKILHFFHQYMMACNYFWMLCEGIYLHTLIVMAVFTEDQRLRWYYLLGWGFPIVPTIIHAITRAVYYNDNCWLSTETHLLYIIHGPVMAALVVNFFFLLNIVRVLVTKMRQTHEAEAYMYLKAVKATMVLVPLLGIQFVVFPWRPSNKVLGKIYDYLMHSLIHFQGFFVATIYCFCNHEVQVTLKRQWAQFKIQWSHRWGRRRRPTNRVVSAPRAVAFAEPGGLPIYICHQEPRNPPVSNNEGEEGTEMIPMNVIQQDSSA
In short: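 Receptor source: membranes from transiently transfected BHK tk′ts 13 cells expressing rat calcitonin receptor, collected roughly 48 hours after transfection.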

[2] = target: T3, rat amylin receptor (rat calcitonin receptor + rat RAMP 3) (Rattus norvegicus, UniProt P32214+Q9JJ73); experiment: ASSAY (VI) binding to the rat amylin receptor
T3 construct: expressed in transfected cells; host or cells: BHK tk'ts 13 (transient, FuGENE 6), membranes
T3 sequence (P32214 25-479 isoform P32214-2 limits assumed): T2 sequence (P32214 25-479 isoform P32214-2 limits assumed)
T3 sequence (Q9JJ73 23-147 partner): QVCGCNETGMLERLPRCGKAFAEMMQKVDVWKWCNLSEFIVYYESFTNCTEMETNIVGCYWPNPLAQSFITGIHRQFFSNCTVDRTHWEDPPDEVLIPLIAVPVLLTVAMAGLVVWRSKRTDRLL
In short: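 Membranes for this rat amylin receptor binding assay came from BHK tk′ts 13 cells. The cells were transiently transfected with rat calcitonin receptor using the FuGENE® 6 reagent from Roche, as the manufacturer recommends. The cells were collected approximately 48 hours after transfection, and membranes were then prepared.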

[3] = target: T4, human amylin 3(a) receptor (human calcitonin receptor + RAMP-3) in BHK570 cells (Homo sapiens, UniProt O60896+P30988); experiment: ASSAY (II)a functional assay, human amylin receptor (CRE luciferase); assay type: cell-based
T4 construct: expressed in transfected cells
In short: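 Readout is luminescence from a cAMP-responsive CRE-luc reporter, developed with LucLite for 30 min at room temperature. Cells were treated for 3 h at 37 °C in 10% FBS/DMEM buffered with 10 mM Hepes (pH 7.4).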

[4] = ASSAY (IV) determination of solubility; assay type: physicochemical
In short: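 UPLC read-out of polypeptide concentration after centrifugation. Samples: aqueous polypeptide stock ([…]) + 100 mM buffer 1:1, glycylglycine pH 3.0–5.0 or bistrispropane pH 6.0–8.0; 18 h, RT.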

In the case of `CC[C@H](C)[C@H](NC(=O)[C@H](C)NC(=O)CNC(=O)[C@H](Cc1ccccc1)NC(=O)[C@H](CC(N)=O)NC(=O)[C@@H]1CCCN1C(=O)[C@H](CO)NC(=O)[C@H](CO)NC(=O)[C@H](Cc1c[nH]cn1)NC(=O)[C@H](CCCNC(=N)N)NC(=O)[C@H](CC(C)C)NC(=O)[C@H](Cc1ccccc1)NC(=O)[C@H](C)NC(=O)[C@H](C)NC(=O)[C@H](CC(C)C)NC(=O)[C@H](CCCNC(=N)N)NC(=O)[C@H](CCC(N)=O)NC(=O)[C@@H](NC(=O)[C@H](C)NC(=O)[C@@H]1CSSC[C@H](NC(=O)[C@H](CCCNC(=N)N)NC(=O)CNC(=O)CC[C@H](NC(=O)CCCCCCCCCCCCCCCCCCC(=O)O)C(=O)O)C(=O)N[C@@H](CC(N)=O)C(=O)N[C@@H]([C@@H](C)O)C(=O)N[C@@H](C)C(=O)N[C@@H]([C@@H](C)O)C(=O)N1)[C@@H](C)O)C(=O)N1CCC[C@H]1C(=O)N[C@@H](CO)C(=O)N[C@@H](CO)C(=O)N[C@H](C(=O)N[C@@H](CC(N)=O)C(=O)N[C@H](C(=O)NCC(=O)N1CCC[C@H]1C(=O)N[C@@H](CC(N)=O)C(=O)N[C@H](C(=O)N[C@@H](Cc1ccc(O)cc1)C(N)=O)[C@@H](C)O)C(C)C)[C@@H](C)O` [Example 103] ({C20 diacid-γGlu}-GRCNTATCATQRLAAFLRHSSPNFGAIPSSTNVGPNTY-NH2; disulfide 3-8), the IC50 [1] is reported as 0.114 nM, the “Ratio hCT/hAmylin binding” value ([1]; Table 5, selectivity, hCTR bind IC50 / hAmylin-R bind IC50) is reported as 26.5 and the “Ratio hCT/hAmylin binding” value ([1]; Table 5a, selectivity, hCTR bind IC50 / hAmylin-R bind IC50) is reported as 26.5. The “Ratio hCT/hAmylin binding” value ([1]; Table 5b, selectivity, hCTR bind IC50 / hAmylin-R bind IC50) was 26.5, the “Ratio hCT/hAmylin binding” value ([1]; Table 5c, selectivity, hCTR bind IC50 / hAmylin-R bind IC50) was 26.5 and the “Ratio hCT/hAmylin binding” value ([1]; Table 7, human binding selectivity, included for comparison) was 26.5. For the same molecule, the “Ratio hCT/hAmylin binding” value ([1]; Table 7a (preferred compounds), human binding selectivity, included for comparison) was 26.5, the “Ratio hCT/hAmylin binding” value ([1]; ratio of human calcitonin receptor binding IC50 to human amylin receptor binding IC50) was 26.5 and the IC50 (rat calcitonin receptor) was 56.3 nM. The IC50 [2] was 0.436 nM, the “Ratio rCT/rAmylin binding” value ([2]; Table 7, rat binding selectivity, rCTR IC50 / rAmylin-R IC50) was 129.1 and the “Ratio rCT/rAmylin binding” value ([2]; Table 7a (preferred compounds), rat binding selectivity, rCTR IC50 / rAmylin-R IC50) was 129.1. The “Ratio rCT/rAmylin binding” value ([2]; ratio of rCTR bind IC50 to rAmylin-R bind IC50) was 129.1, the EC50 [3] was 0.07 nM and the “Ratio hCT/hAmylin funct.” value ([3]; hCTR funct. EC50 / hAmylin-R funct. EC50) was 2.1. The “Ratio hCT/hAmylin funct.” value ([3]; hCTR funct. EC50 divided by hAmylin-R funct. EC50) was 2.1, the “Ratio hCT/hAmylin funct.” value ([3]; hCTR funct. EC50 over hAmylin-R funct. EC50) was 2.1 and the “Ratio hCT/hAmylin funct.” value ([3]; human functional selectivity: hCTR funct. EC50 / hAmylin-R funct. EC50) was 2.1. For the same molecule, the solubility at 18 h ([4]; pH 3.0, read-out: Solubility pH 3.0 Concentration) was ≥ 200 µM, the solubility at 18 h ([4]; pH 4.0, read-out: Solubility pH 4.0 Concentration) was ≥ 200 µM and the solubility at 18 h ([4]; pH 5.0, read-out: Solubility pH 5.0 Concentration) was ≥ 200 µM. For the same molecule, the solubility at 18 h ([4]; pH 6.0, read-out: Solubility pH 6.0 Concentration) was ≥ 200 µM, the solubility at 18 h ([4]; pH 6.5, read-out: Solubility pH 6.5 Concentration) was ≥ 200 µM and the solubility at 18 h ([4]; pH 7.0, read-out: Solubility pH 7.0 Concentration) was ≥ 200 µM. The solubility at 18 h ([4]; pH 7.5, read-out: Solubility pH 7.5 Concentration) was 141 µM (≈ 625 µg/mL) and the solubility at 18 h ([4]; pH 8.0, read-out: Solubility pH 8.0 Concentration) was 194 µM (≈ 860 µg/mL).
